Laboratory results reported in ChEMBL document CHEMBL1155249, “Molecular modifications on carboxylic acid derivatives as potent histone deacetylase inhibitors: Activity and docking studies” (Bioorg Med Chem, 2009).

molecular target: Histone deacetylase; assay: Inhibition of HDAC in human Hela cells nuclear extracts by fluorimetric assay; assay type: cell-based

Ki [µM]	IC50 [µM]	SMILES
10.84	2540	O=C(O)/C=C/c1ccc(O)c(O)c1 [CAFFEIC ACID]
0.135	375	O=C(/C=C/c1ccc(O)c(O)c1)O[C@@H]1C[C@](O)(C(=O)O)C[C@@H](O)[C@H]1O [CHLOROGENIC ACID]
0.00821	–	O=C(O)/C=C/c1ccccc1 [CINNAMIC ACID]
8.19	–	NCCCC(=O)O [GAMMA-AMINOBUTYRIC ACID]
6.34	–	O=C([O-])CCCc1ccccc1.[Na+] [SODIUM PHENYLBUTYRATE]

SMILES	Ki [µM]	IC50 [µM]
CCCC(=O)O [BUTYRIC ACID]	136	–
CCCC(=O)[O-].[Na+] [SODIUM BUTYRATE]	365	800
